Source: patent publication US20260091026A1, “METHODS OF TREATING INFLAMMATORY DISEASES” (INTERLINE THERAPEUTICS, INC., priority 2023, published 2026)

How the values were obtained:
[1] = target: T1, RIPK2 (KD)/XIAP (BIR2) (Homo sapiens, UniProt O43353); test: RIPK2-XIAP binding competition PPI assay (TR-FRET); conditions: for Emax: 50 nM of GSK583 = -100% activity, read-out: PPI Amax; for IC50: GST-RIPK2 / His-XIAP (BIR2)-avi, 120 min at 23° C.
T1 construct: made in house; host or cells: baculovirus-infected Sf9 cells
T1 sequence (O43353 1-310): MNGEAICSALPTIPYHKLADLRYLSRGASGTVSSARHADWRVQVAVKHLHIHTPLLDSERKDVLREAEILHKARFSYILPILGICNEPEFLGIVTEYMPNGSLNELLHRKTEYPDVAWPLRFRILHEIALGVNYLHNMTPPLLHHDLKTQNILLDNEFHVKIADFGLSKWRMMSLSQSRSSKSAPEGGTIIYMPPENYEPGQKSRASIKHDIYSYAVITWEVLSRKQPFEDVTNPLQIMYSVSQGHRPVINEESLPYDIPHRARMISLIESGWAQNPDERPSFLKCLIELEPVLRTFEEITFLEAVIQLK
Procedure, shortened: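 After 2 h at 23 °C, complex formation was read as the 665/520 nm emission ratio (337 nm excitation), scaled between uninhibited reaction and 50 nM GSK583. The mix held 1 nM human RIPK2 kinase fragment-GST, 25 nM His-tagged XIAP BIR2 and Tb/XL665 antibodies in pH 7.5 Tris buffer containing vanadate and glycerophosphate.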

[2] = system: THP1-Dual cells, NF-κB pathway (SEAP); test: THP-1 Dual cell SEAP assay (L18-MDP stimulated); assay type: cell-based; conditions: Homo sapiens, 10 ng/mL L18-MDP, 20-24 h, SEAP readout, read-out: IFNγ THP1 IC50
Procedure, shortened: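 IC50 values come from non-linear fits of % inhibition of SEAP, measured as QUANTI-Blue optical density (620-655 nm, 2 h) in media-blanked supernatants. These were taken from THP1-Dual cells treated with compound for 30 min before overnight exposure to 10 ng/mL L18-MDP final at 37 °C.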

COc1cc2ncc(-c3cc(C(=O)N[C@@H]4C[C@@H]4c4ccccc4)n(C)n3)n2cc1S(=O)(=O)C(C)(C)C (single isomer, unassigned) [Example 30, cis-(1S,2S) or (1R,2R) 3-(6-(tert-butylsulfonyl)-7-methoxyimidazo[1,2-a]pyridin-3-yl)-1-methyl-N-(2-phenylcyclopropyl)-1H-pyrazole-5-carboxamide] was tested, and the Emax [1] was 30 to 55%, the IC50 [1] was greater than 1 µM and the IC50 [2] was greater than 2.5 µM.

With COc1cc2ncc(-c3cc(C(=O)N[C@H](C)c4ccn(C)n4)n(C)n3)n2cc1S(=O)(=O)C(C)(C)C [Example 59, (R)-3-(6-(tert-butylsulfonyl)-7-methoxyimidazo[1,2-a]pyridin-3-yl)-1-methyl-N-(1-(1-methyl-1H-pyrazol-3-yl)ethyl)-1H-pyrazole-5-carboxamide] the Emax [1] was no less than 80%, the IC50 [1] was 0.1 to 1 µM and the IC50 [2] was 0.5 to 2.5 µM.

COc1cc2ncc(-c3cc(C(=O)NCc4cccn5ccnc45)n(C)n3)n2cc1S(=O)(=O)C(C)(C)C [Example 21, 3-(6-(tert-butylsulfonyl)-7-methoxyimidazo[1,2-a]pyridin-3-yl)-N-(imidazo[1,2-a]pyridin-8-ylmethyl)-1-methyl-1H-pyrazole-5-carboxamide] gave an Emax [1] of no less than 80%, an IC50 [1] of 0.1 to 1 µM and an IC50 [2] greater than 2.5 µM.

Compound COc1cc2ncc(-c3cc(C(=O)NCc4nccn4C)n(C)n3)n2cc1S(=O)(=O)C(C)(C)C [Example 76, 3-(6-(tert-butylsulfonyl)-7-methoxyimidazo[1,2-a]pyridin-3-yl)-1-methyl-N-((1-methyl-1H-imidazol-2-yl)methyl)-1H-pyrazole-5-carboxamide] has an Emax [1] of no more than 30%, an IC50 [1] greater than 1 µM and an IC50 [2] greater than 2.5 µM.

COc1cc2ncc(-c3cc(C(=O)N[C@H](C)c4ccccn4)n(CCO)n3)n2cc1S(=O)(=O)C(C)(C)C [Example 142, (R)-3-(6-(tert-butylsulfonyl)-7-methoxyimidazo[1,2-a]pyridin-3-yl)-1-(2-hydroxyethyl)-N-(1-(pyridin-2-yl)ethyl)-1H-pyrazole-5-carboxamide] was tested, and the Emax [1] was no less than 80%, the IC50 [1] was 0.01 to 0.1 µM and the IC50 [2] was 0.5 to 2.5 µM.

COc1cc2ncc(-c3cc(C(=O)N[C@H](C)c4ncccn4)n(CC(F)(F)CO)n3)n2cc1S(=O)(=O)C(C)(C)C [Example 107, (R)-3-(6-(tert-butylsulfonyl)-7-methoxyimidazo[1,2-a]pyridin-3-yl)-1-(2,2-difluoro-3-hydroxypropyl)-N-(1-(pyrimidin-2-yl)ethyl)-1H-pyrazole-5-carboxamide] showed an Emax [1] of no less than 80%, an IC50 [1] of 0.01 to 0.1 µM and an IC50 [2] of 0.5 to 2.5 µM.

CCn1nc(-c2cnc3cc(OCCO)c(S(=O)(=O)C(C)(C)C)cn23)cc1C(=O)N[C@H](C)c1ccccn1 [Example 121, (R)-3-(6-(tert-butylsulfonyl)-7-(2-hydroxyethoxy)imidazo[1,2-a]pyridin-3-yl)-1-ethyl-N-(1-(pyridin-2-yl)ethyl)-1H-pyrazole-5-carboxamide] showed an Emax [1] of no less than 80%, an IC50 [1] of less than 0.01 µM and an IC50 [2] of less than 0.1 µM.

Compound CCn1nc(-c2cnc3cc(OCCO)c(S(=O)(=O)C(C)(C)C)cn23)cc1C(=O)N[C@@H](C)c1ncc(C)s1 [Example 131, (S)-3-(6-(tert-butylsulfonyl)-7-(2-hydroxyethoxy)imidazo[1,2-a]pyridin-3-yl)-1-ethyl-N-(1-(5-methylthiazol-2-yl)ethyl)-1H-pyrazole-5-carboxamide] has an Emax [1] of no less than 80%, an IC50 [1] of 0.01 to 0.1 µM and an IC50 [2] of 0.5 to 2.5 µM.

COc1cc2ncc(-c3cc(C(=O)N[C@H](C)c4ncccn4)n(C)n3)n2cc1S(=O)(=O)C(C)(C)C [Example 103, (R)-3-(6-(tert-butylsulfonyl)-7-methoxyimidazo[1,2-a]pyridin-3-yl)-1-methyl-N-(1-(pyrimidin-2-yl)ethyl)-1H-pyrazole-5-carboxamide] was tested, and the Emax [1] was no less than 80%, the IC50 [1] was 0.01 to 0.1 µM and the IC50 [2] was 0.1 to 0.5 µM.

Work on COc1cc2ncc(-c3cc(C(=O)N[C@H](C)c4ncccc4F)n(C)n3)n2cc1S(=O)(=O)C(C)(C)C [Example 50, (R)-3-(6-(tert-butylsulfonyl)-7-methoxyimidazo[1,2-a]pyridin-3-yl)-N-(1-(3-fluoropyridin-2-yl)ethyl)-1-methyl-1H-pyrazole-5-carboxamide] yielded an Emax [1] of no less than 80%, an IC50 [1] of 0.01 to 0.1 µM and an IC50 [2] of 0.1 to 0.5 µM.

COc1cc2ncc(-c3cc(C(=O)NCc4nn(C)c5ccccc45)n(C)n3)n2cc1S(=O)(=O)C(C)(C)C [Example 15, 3-(6-(tert-butylsulfonyl)-7-methoxyimidazo[1,2-a]pyridin-3-yl)-1-methyl-N-((1-methyl-1H-indazol-3-yl)methyl)-1H-pyrazole-5-carboxamide] showed an Emax [1] of 55 to 80%, an IC50 [1] of 0.1 to 1 µM and an IC50 [2] greater than 2.5 µM.

With COc1cc2ncc(-c3cc(C(=O)NCc4ccc(F)cn4)n(C)n3)n2cc1S(=O)(=O)C(C)(C)C [Example 46, 3-(6-(tert-butylsulfonyl)-7-methoxyimidazo[1,2-a]pyridin-3-yl)-N-((5-fluoropyridin-2-yl)methyl)-1-methyl-1H-pyrazole-5-carboxamide] the Emax [1] was no less than 80%, the IC50 [1] was 0.1 to 1 µM and the IC50 [2] was greater than 2.5 µM.

CCn1nc(-c2cnc3cc(OC)c(S(=O)(=O)C(C)(C)C)cn23)cc1C(=O)N[C@H](C)c1nccs1 [Example 98, (R)-3-(6-(tert-butylsulfonyl)-7-methoxyimidazo[1,2-a]pyridin-3-yl)-1-ethyl-N-(1-(thiazol-2-yl)ethyl)-1H-pyrazole-5-carboxamide] was tested, and the Emax [1] was no less than 80%, the IC50 [1] was less than 0.01 µM and the IC50 [2] was less than 0.1 µM.

Work on COc1cc2ncc(-c3cc(C(=O)NCc4ccncn4)n(C)n3)n2cc1S(=O)(=O)C(C)(C)C [Example 68, 3-(6-(tert-butylsulfonyl)-7-methoxyimidazo[1,2-a]pyridin-3-yl)-1-methyl-N-(pyrimidin-4-ylmethyl)-1H-pyrazole-5-carboxamide] yielded an Emax [1] of no more than 30%, an IC50 [1] greater than 1 µM and an IC50 [2] greater than 2.5 µM.

In the case of COc1cc2ncc(-c3cc(C(=O)N[C@@H](c4ccccn4)C(F)(F)F)n(C)n3)n2cc1S(=O)(=O)C(C)(C)C [Example 62, (S)-3-(6-(tert-butylsulfonyl)-7-methoxyimidazo[1,2-a]pyridin-3-yl)-1-methyl-N-(2,2,2-trifluoro-1-(pyridin-2-yl)ethyl)-1H-pyrazole-5-carboxamide], the Emax [1] is reported as no less than 80%, the IC50 [1] is reported as 0.1 to 1 µM and the IC50 [2] is reported as 0.5 to 2.5 µM.

For COc1cc2ncc(-c3cc(C(=O)NCc4nccc(C)n4)n(C)n3)n2cc1S(=O)(=O)C(C)(C)C [Example 79, 3-(6-(tert-butylsulfonyl)-7-methoxyimidazo[1,2-a]pyridin-3-yl)-1-methyl-N-((4-methylpyrimidin-2-yl)methyl)-1H-pyrazole-5-carboxamide], the Emax [1] was no less than 80%, the IC50 [1] was 0.1 to 1 µM and the IC50 [2] was greater than 2.5 µM.

In the case of CC(C)n1nc(-c2cnc3cc(OCCO)c(S(=O)(=O)C(C)(C)C)cn23)cc1C(=O)N[C@H](C)c1ncccn1 [Example 137, (R)-3-(6-(tert-butylsulfonyl)-7-(2-hydroxyethoxy)imidazo[1,2-a]pyridin-3-yl)-1-isopropyl-N-(1-(pyrimidin-2-yl)ethyl)-1H-pyrazole-5-carboxamide], the Emax [1] is reported as no less than 80%, the IC50 [1] is reported as less than 0.01 µM and the IC50 [2] is reported as less than 0.1 µM.

For COc1cc2ncc(-c3cc(C(=O)NCc4cc(C)sn4)n(C)n3)n2cc1S(=O)(=O)C(C)(C)C [Example 87, 3-(6-(tert-butylsulfonyl)-7-methoxyimidazo[1,2-a]pyridin-3-yl)-1-methyl-N-((5-methylisothiazol-3-yl)methyl)-1H-pyrazole-5-carboxamide], the Emax [1] was no less than 80%, the IC50 [1] was 0.01 to 0.1 µM and the IC50 [2] was 0.5 to 2.5 µM.
